# From PMC7754187 (ACS Chemical Biology, 2020)
# Non-standard residues stand in square brackets, D forms with d. Residues, ends and D or L forms follow the SMILES beside them. pS = N[C@@H](COP(=O)(O)O)C(=O)O
# Tested on: seven human 14-3-3 isoforms
# Test: FA of ERRγ phosphopeptides with the seven 14-3-3 isoforms
# Format: binding
# Settings: 14-3-3γ compared with other isoforms; Figure 2b, Figure S1
compound,measurement,value
CC(=O)N[C@@H](CCCCN)C(=O)N[C@@H](CCCNC(=N)N)C(=O)N[C@@H](CCCNC(=N)N)C(=O)N[C@@H](CCCNC(=N)N)C(=O)N[C@@H](CCCCN)C(=O)N[C@@H](COP(=O)(O)O)C(=O)N[C@@H](CS)C(=O)N[C@@H](CCC(N)=O)C(=O)N[C@@H](C)C(N)=O [DBD] (Ac-KRRRK[pS]CQA-NH2),Relative affinity among 14-3-3 isoforms (in words),highest affinity
